# Measured values as given in patent US6380164B1, “Method for treating cytokine mediated hepatic injury” (University of Kentucky Research Foundation, priority 1999, dated 2002).
# Test system: Male BALB/c HSD mice
# Test: Survival of mice rendered hepatotoxic by LPS/GAL treatment (hepatic failure / septic shock model)
# Assay type: in vivo
# Details: for survival time compared to mice receiving LPS/GAL only: mice made septic by LPS/GAL treatment, 4 mg/kg intraperitoneal x5, result in words; for SURVIVAL 15 Hours (number of surviving mice) / SURVIVAL 15 Hours (percent of mice) / SURVIVAL 20 Hours (number of surviving mice) / SURVIVAL 20 Hours (percent of mice) / SURVIVAL 40 Hours (number of surviving mice) / SURVIVAL 40 Hours (percent of mice) / SURVIVAL 65 Hours (number of surviving mice) / SURVIVAL 65 Hours (percent of mice): n=15 mice, 4 mg/kg intraperitoneal at 0 h, 2 h, 4 h, 6 h and 7.5 h, LPS/GAL at 6.5 h; for SURVIVAL 15 Hours (number of surviving mice) / SURVIVAL 15 Hours (percent of mice): 15 h after the last injection; for SURVIVAL 20 Hours (number of surviving mice) / SURVIVAL 20 Hours (percent of mice): 20 h after the last injection; for SURVIVAL 40 Hours (number of surviving mice) / SURVIVAL 40 Hours (percent of mice): 40 h after the last injection; for SURVIVAL 65 Hours (number of surviving mice) / SURVIVAL 65 Hours (percent of mice): 65 h after the last injection
# Experimental: Hepatic failure was induced in mice by intraperitoneal injections of a mixture of lipopolysaccharide (LPS) ([…]) and D-galactosamine (GAL) (700 mg/kg) to form LPS/GAL. LPS is a bacterial endotoxin that is a major stimulus for production of many cytokines, particularly tumor necrosis factor (TNF), thought to be involved in liver injury. GAL is an amino sugar that sensitizes hepatocytes by depleting the base uridine and thus preventing hepatic transcription, and sensitizes animals to normally innocuous amounts of endotoxin or TNF. The LPS/GAL treatment induces fulminate hepatic and multiorgan failure, and serves as a model for septic shock. The major effects of LPS/GAL are elicited by the inflammatory cytokine TNF-α. Hepatocytes sensitized to TNF-α then undergo apoptosis or programmed cell death in response to inflammatory processes.
# Mice were treated with deltorphin and were subsequently rendered hepatotoxic by LPS/GAL treatment. An emulsion of deltorphin I SEQ ID NO:1 (Tyr-D-Ala-Phe-Asp-Val-Val-Gly-NH2) was prepared at a concentration of 80 μg/200 μl in sterile phosphate buffered saline (PBS). An emulsion of DADLE (Tyr-D-Ala-Gly-Phe-D-Leu-enkephalin) was also prepared at a concentration of 80 μg/200 μl in sterile PBS. Male BALB/c HSD mice were treated by intraperitoneal injections according to the following protocol. Control mice (n=7) received only LPS/GAL (280 μl) at 6.5 h. Deltorphin I SEQ ID NO:1 treated mice (n=15) received injections of 4 mg/kg deltorphin I SEQ ID NO:1 at 0 h, 2 h, 4 h, 6 h and 7.5 h and received an LPS/GAL injection at 6.5 h. DADLE treated mice (n 15) received 4 mg/kg DADLE at 0 h, 2 h, 4 h, 6 h and 7.5 h and received an LPS/GAL injection at 6.5 h.
# Both control and treated mice were monitored at 15 h, 20 h, 40 h and 65 h after the last injection.
molecule,measurement,value
"CC(C)C[C@@H](NC(=O)[C@H](Cc1ccccc1)NC(=O)CNC(=O)[C@@H](C)NC(=O)[C@@H](N)Cc1ccc(O)cc1)C(=O)O [DADLE, Tyr-D-Ala-Gly-Phe-D-Leu-enkephalin]",survival time compared to mice receiving LPS/GAL only,not as striking at any time point
same,SURVIVAL 15 Hours (number of surviving mice),3
same,SURVIVAL 15 Hours (percent of mice),20%
same,SURVIVAL 20 Hours (number of surviving mice),3
same,SURVIVAL 20 Hours (percent of mice),20%
same,SURVIVAL 40 Hours (number of surviving mice),3
same,SURVIVAL 40 Hours (percent of mice),20%
same,SURVIVAL 65 Hours (number of surviving mice),3
same,SURVIVAL 65 Hours (percent of mice),20%
Tyr-D-Ala-Phe-Asp-Val-Val-Gly-NH2 [deltorphin I SEQ ID NO:1],survival time compared to mice receiving LPS/GAL only,markedly increased survival time
same,SURVIVAL 15 Hours (number of surviving mice),12
same,SURVIVAL 15 Hours (percent of mice),80%
same,SURVIVAL 20 Hours (number of surviving mice),11
same,SURVIVAL 20 Hours (percent of mice),73%
same,SURVIVAL 40 Hours (number of surviving mice),11
same,SURVIVAL 40 Hours (percent of mice),73%
same,SURVIVAL 65 Hours (number of surviving mice),11
same,SURVIVAL 65 Hours (percent of mice),73%
